Reference: US20090317395A1, “Antimicrobial Peptide Derived from Galanin Message Associated Peptide (GMAP)” (priority 2006, published 2009)
Several values for one entry are separate records, joined by “and”; a condition that tells them apart may be missing. Equal values may be shown once. Entries after “also recorded” stand apart in the source; their conditions may differ.

Columns and labels:
Candida albicans [1] = test: Microscopic examination of treated Candida albicans cultures for hyphae (yeast-to-hypha switch); format: cell-based
Protocol: Cultures of Candida albicans were treated for 24 and 48 hrs either with the common antifungal substance fluconazol, GMAP 16-42 or Galanin.

Candida albicans [2] = test: Antifungal (growth inhibition) activity against C. albicans; format: cell-based; details: for inhibitory growth effect / antimicrobial activity against C. albicans: FIG. 3 (C), ** p<0.05
Source text: The inventors analyzed the antimicrobial activity of peptide fragments corresponding to ppGAL against gram-negative E. coli gram-positive Staphylococcus aureus and Corynebacterium sp. and the yeast Candida albicans and Aspergillus fumigatus. Positive controls were the antimicrobial peptides Indolicidin, NPY 13-36 and Magainin I, as a negative control served the Adrenocorticotropic hormone (ACTH) 18-39 (Cutuli M, Cristiani S, Lipton J M and Catania A: Antimicrobial effects of alpha-MSH peptides. J Leukoc Biol 67:233-239, 2000; Selsted M E, Novotny M J, Morris W L, Tang Y Q, Smith W and Cullor J S: Indolicidin, a novel bactericidal tridecapeptide amide from neutrophils. J Biol Chem. 267:4292-4295., 1992; Shimizu M, Shigeri Y, Tatsu Y, Yoshikawa S and Yumoto N: Enhancement of antimicrobial activity of neuropeptide Y by N-terminal truncation. Antimicrob Agents Chemother 42:2745-2746, 1998; Zasloff M: Magainins, a class of antimicrobial peptides from Xenopus skin: isolation, characterization of two active forms, and partial cDNA sequence of a precursor. Proc Natl Acad Sci USA 84:5449-5453, 1987).
None of the peptide fragments tested of the ppGal gene did reveal antibacterial activity. […] The antifungal activity can be found already at a concentration of […] (4 μM).

[3] = interpretation of microscopy findings

OC(Cn1cncn1)(Cn1cncn1)c1ccc(F)cc1F [fluconazol, reference compound]
microscopic examination of cultures: hyphae / yeast forms (Candida albicans [1]; treated for 24 and 48 hrs): hyphae were only visible in the untreated and galanin treated wells | microscopic examination of cultures: hyphae / yeast forms (Candida albicans [1]; treated for 48 hrs (FIG. 4)): hyphae were only visible in the untreated and galanin treated wells

ELRPEDDMKPGSFDRSIPENNIMRTIIEFLSFLHLKEAGAL (listed as Homo sapiens) [GMAP 1-41]
inhibitory growth effect / antimicrobial activity against C. albicans (Candida albicans [2]): active compound

GMAP: galanin message associated peptide; in b114 refers to the GMAP fragment treated wells (ELRPEDDMKPGSFDRSIPENNIMRTIIEFLSFLHLKEAGAL; listed as Homo sapiens)
effect on proliferation of Candida per se (Candida albicans [1]; [3]): not to significantly affect the proliferation of Candida per se | effect on switch to pathogenic hyphal forms (Candida albicans [1]; [3]): inhibits the switch to pathogenic hyphal forms; also recorded: inhibits the pathogenic phenotypic switch of C. albicans

SIPENNIMRTIIEFLSFLHLKEAGAL (listed as Homo sapiens) [GMAP 16-41]
concentration at which antifungal activity can be found (Candida albicans [2]; C. albicans): 12 pg/ml and 4 μM | inhibitory growth effect / antimicrobial activity against C. albicans (Candida albicans [2]): antimicrobial core sequence
